Assay results: US20110052723A1, “USE OF COMPOUNDS BINDING TO THE SIGMA RECEPTOR LIGANDS FOR THE TREATMENT OF NEUROPATHIC PAIN DEVELOPING AS A CONSEQUENCE OF CHEMOTHERAPY” (priority 2008, published 2011)

How the values were obtained:
[1] = tested on: CD-1 mice; assay: Paclitaxel-induced cold allodynia, acetone test
Description: Experiments were performed in CD-1 mice (Charles River, U.S.A.) with at least n=10/experimental group. […] Control animals received the same volume of solvent (a mixture of ethanol and cremophor EL)
Mechanical allodynia was evaluated with an electronically driven Von Frey filament (Dynamic Plantar Aesthesiometer, Ugo Basile, Varese, Italy) as previously described (Nieto et al., 2008), and cold allodynia was evaluated using the acetone drop method (Polomano et al., 2001; Smith et al., 2004).
In addition, in order to study the influence of the sigma 1 receptor in this process the difference in development of allodynia was determined using wild-type mice and sigma 1-receptor knock-out-mice.
Therefore, the cumulative dose was 10 mg/kg per mouse.
BD-1063 was dissolved in normal saline just before administration and applied at doses of 8, 16, 32 or 64 mg/kg subcutaneously.
The response of the animals to the different nociceptive stimuli was tested subsequently during 2-4 weeks, depending on the test (see below), without any additional treatment. Each animal was tested only in one nociceptive model. […] Each animal received only one dose of BD-1063 and was tested in only one nociceptive model.
Procedure for assessment of cold allodynia. Cold allodynia was tested as previously described by Smith et al., 2004, by gently touching the plantar skin of the hind paws with an acetone bubble formed with a syringe connected to a thin polyethylene tube. The mice were housed and habituated for 30 min in transparent plastic boxes (7×7×13 cm) with a floor made of wire mesh. After the adaptation period, acetone was applied alternately three times to each paw at intervals of 30 s, and the duration and frequency of licking or biting were recorded. A small mirror was placed behind the chambers to allow clear observation of the paws. The time spent licking or biting the paw was recorded by a stopwatch and represented as the cumulative time of licking/biting in the six measurements. Since licking persisting more than 10 s in the experiments was very unusual, a cut-off time of 10 s was used for each trial.
Therefore, the day 10, after the habituation period to the apparatus, baseline latencies were recorded, 30 min later BD-1063 or saline was injected s.c. and paw withdrawal latencies were assessed again 30, 60, 90, 120 and 180 minutes after the injection.

[2] = tested on: CD-1 mice; assay: Paclitaxel-induced mechanical allodynia, Von Frey test; format: in vivo
Description: Procedure for assessment of mechanical allodynia. To assess mechanical allodynia, paw withdrawal thresholds were measured using a Dynamic Plantar Aesthesiometer (Ugo Basile, Italy). The electronic Von Frey device employs a single nonflexible filament which applies a progressively increasing force (from 0 to 10 g) against the plantar surface of the hind paw over a 20 s period. […] The day of the experiment, mice were placed individually in test compartments (9×9×14 cm) with a wire mesh bottom and allowed to acclimatize to them for 2 h. After habituation, each mouse was tested three times alternately in each hind paw.

[3] = tested on: sigma receptor; settings: Sigma 1 and Sigma 2; cited from earlier work
[4] = tested on: patients; settings: paclitaxel 135 mg/m^2; cited from earlier work
[5] = sigma-1-receptor knockout animals, paclitaxel 2 mg/kg i.p. once daily during 5 days
[6] = wild-type animals, paclitaxel 2 mg/kg i.p. once daily during 5 days

CN1CCN(CCc2ccc(Cl)c(Cl)c2)CC1 [BD-1063]
development of paclitaxel-induced cold allodynia (duration of hind paw licking/biting) ([1]; BD-1063 32 mg/kg 30 min before each paclitaxel injection (2 mg/kg i.p.), days 1 to 5, tested to day 24): inhibited the development of cold allodynia | expression of paclitaxel-induced cold allodynia (duration of hind paw licking/biting) ([1]; single s.c. injection on day 10, 8, 16, 32 or 64 mg/kg, dose-dependent, significantly different from saline): inhibited the expression of paclitaxel-induced cold allodynia | expression of paclitaxel-induced mechanical allodynia (threshold force for paw withdrawal) ([2]; single s.c. injection on day 10, 32 or 64 mg/kg, dose-dependent, significantly different from saline): inhibited the expression of paclitaxel-induced mechanical allodynia

CC(C)=CCN1CCC2(C)c3cc(O)ccc3CC1C2C (stereo not shown) [pentazocine]
affinity of the sigma receptors to analgesics [3]: very high affinity

CC(=O)O[C@H]1C(=O)[C@@]2(C)[C@H]([C@H](OC(=O)c3ccccc3)[C@]3(O)C[C@H](OC(=O)[C@H](O)[C@@H](NC(=O)c4ccccc4)c4ccccc4)C(C)=C1C3(C)C)[C@]1(OC(C)=O)CO[C@@H]1C[C@@H]2O [paclitaxel, Paclitaxel]
time of maximal paclitaxel-induced cold allodynia after the first injection ([1]; control mice, paclitaxel 2 mg/kg i.p. once daily during 5 days): 10 to 14 days | animals with significantly increased time licking/biting the stimulated paw (paclitaxel-responder animals) ([1]; paclitaxel 2 mg/kg i.p. once daily during 5 days): 67% | paclitaxel-induced cold allodynia [1, 5]: not significantly expressed | time of maximal paclitaxel-induced cold allodynia after the first injection [1, 6]: 10 days | mechanical allodynia (threshold force for paw withdrawal) on day 10 ([2]; paclitaxel 2 mg/kg i.p. during 5 days, vs pre-treatment and vehicle): induced mechanical allodynia | paclitaxel-induced mechanical allodynia [2, 5]: not significantly expressed | animals showing a reduction of the mechanical threshold ([2]; treated with paclitaxel): 96% | time of maximal paclitaxel-induced mechanical allodynia after the first injection [2, 6]: 10 days | patients progressing to dose-limiting neurotoxicity [4]: 0%
